Source: ChEMBL document CHEMBL1909046, “DrugMatrix in vitro pharmacology data”

Columns and labels:
[1] = DRUGMATRIX: Sodium/nucleoside co-transporter radioligand binding (ligand: nitrobenzylthioinosine); assay type: cell membranes, Cavia porcellus, Dunkin-Hartley, Cerebral cortex, Membrane; details: Not Active = under 50% inhibition at 10 µM
B2 bradykinin receptor = molecular target: T1, B2 bradykinin receptor (Homo sapiens, UniProt P30411); assay type: cell membranes, Membrane; details: chem-1; also: in other assays of this panel Not Active means under 50% inhibition at 10 µM
T1 sequence (P30411 whole entry): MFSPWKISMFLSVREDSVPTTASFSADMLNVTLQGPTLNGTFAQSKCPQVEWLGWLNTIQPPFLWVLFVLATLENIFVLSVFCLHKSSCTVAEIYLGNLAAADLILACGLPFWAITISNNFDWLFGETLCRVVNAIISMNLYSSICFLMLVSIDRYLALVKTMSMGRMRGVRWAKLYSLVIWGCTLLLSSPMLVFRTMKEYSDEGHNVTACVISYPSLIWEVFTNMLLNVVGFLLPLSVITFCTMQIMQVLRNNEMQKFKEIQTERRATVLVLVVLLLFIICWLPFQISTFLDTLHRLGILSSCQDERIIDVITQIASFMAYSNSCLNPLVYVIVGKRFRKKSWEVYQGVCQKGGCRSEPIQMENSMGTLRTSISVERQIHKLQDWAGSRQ

[2] = DRUGMATRIX: Calcium Channel Type L, Benzothiazepine radioligand binding (ligand: [3H] Diltiazem); assay type: cell membranes, Rattus norvegicus, Wistar, Brain, Membrane; details: Not Active = under 50% inhibition at 10 µM
[3] = DRUGMATRIX: Serotonin (5-Hydroxytryptamine) 5-HT3 radioligand binding (ligand: [3H] GR-65630); assay type: cell membranes, Membrane; details: hek293; Not Active = under 50% inhibition at 10 µM
[4] = DRUGMATRIX: Glutamate, NMDA, Agonism radioligand binding (ligand: [3H] CGP-39653); assay type: cell membranes, Rattus norvegicus, Wistar, Cerebral cortex, Membrane; details: Not Active = under 50% inhibition at 10 µM
[5] = molecular target: Matrix metalloproteinase-9 (Homo sapiens, UniProt P14780); experiment: biochemical; assay type: cell-based;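 also: inhibition of isolated MMP-9 enzyme activity toward a synthetic peptide substrate, from the DrugMatrix protease screening panel; in other assays of this panel Not Active means under 50% inhibition at 10 µM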
[6] = molecular target: Tyrosine-protein kinase Lck (Homo sapiens, UniProt P06239); experiment: DRUGMATRIX: Protein Tyrosine Kinase, LCK enzyme inhibition (substrate: Poly(Glu:Tyr)); assay type: cell-based, Insect cells; details: Not Active = under 50% inhibition at 10 µM
Sequence of Tyrosine-protein kinase Lck (P06239 whole entry): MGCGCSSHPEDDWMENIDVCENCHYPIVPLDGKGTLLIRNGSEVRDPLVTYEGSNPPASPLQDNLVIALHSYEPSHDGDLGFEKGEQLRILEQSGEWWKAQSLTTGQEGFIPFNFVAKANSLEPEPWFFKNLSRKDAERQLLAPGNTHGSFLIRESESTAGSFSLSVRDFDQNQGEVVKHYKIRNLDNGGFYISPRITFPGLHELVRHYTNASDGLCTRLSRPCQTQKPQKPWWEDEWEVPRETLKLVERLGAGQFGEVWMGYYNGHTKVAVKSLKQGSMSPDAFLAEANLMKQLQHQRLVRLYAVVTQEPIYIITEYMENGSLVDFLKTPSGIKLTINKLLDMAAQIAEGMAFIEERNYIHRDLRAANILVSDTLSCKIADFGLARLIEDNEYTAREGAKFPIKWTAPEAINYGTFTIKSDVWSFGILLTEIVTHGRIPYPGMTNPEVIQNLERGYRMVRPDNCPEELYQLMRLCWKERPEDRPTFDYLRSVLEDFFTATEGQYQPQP

Sequence of Matrix metalloproteinase-9 (P14780 whole entry): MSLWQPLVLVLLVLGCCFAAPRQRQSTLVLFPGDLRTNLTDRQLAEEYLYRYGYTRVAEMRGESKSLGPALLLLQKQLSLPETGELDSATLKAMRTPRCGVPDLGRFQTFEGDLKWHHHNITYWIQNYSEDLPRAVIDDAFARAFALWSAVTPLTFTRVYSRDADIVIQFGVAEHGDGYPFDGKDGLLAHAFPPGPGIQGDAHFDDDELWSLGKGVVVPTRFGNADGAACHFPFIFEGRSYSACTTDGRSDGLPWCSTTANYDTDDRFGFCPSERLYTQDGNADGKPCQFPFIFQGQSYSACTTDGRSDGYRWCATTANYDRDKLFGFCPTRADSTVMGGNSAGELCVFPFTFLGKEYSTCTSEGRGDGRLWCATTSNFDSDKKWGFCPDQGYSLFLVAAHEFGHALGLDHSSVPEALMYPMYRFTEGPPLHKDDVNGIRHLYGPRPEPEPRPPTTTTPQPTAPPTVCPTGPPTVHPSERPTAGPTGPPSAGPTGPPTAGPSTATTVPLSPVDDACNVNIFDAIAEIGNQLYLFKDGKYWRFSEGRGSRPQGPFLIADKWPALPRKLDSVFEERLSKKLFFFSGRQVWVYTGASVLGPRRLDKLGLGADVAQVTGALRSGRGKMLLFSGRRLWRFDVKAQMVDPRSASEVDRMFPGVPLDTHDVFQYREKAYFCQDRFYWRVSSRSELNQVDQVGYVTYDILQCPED

| Structure (SMILES) | IC50 [1] | Ki [1] | IC50 (B2 bradykinin receptor) | IC50 [2] | Ki [2] | IC50 [3] | Ki [3] | IC50 [4] | Ki [4] | IC50 [5] | IC50 ([6]; insect cells) | IC50 ([5]; read-out: IC50) [µM] | IC50 ([6]; read-out: IC50) [µM] | Ki ([6]; insect cells) |
| --- | --- | --- | --- | --- | --- | --- | --- | --- | --- | --- | --- | --- | --- | --- |
| Nn1nnc2ccccc21 | Not Active | Not Active | Not Active | Not Active | Not Active | Not Active | Not Active | Not Active | Not Active | Not Active | Not Active |  |  |  |
| CC[C@]1(O)CC[C@H]2[C@@H]3CCC4=CCCC[C@@H]4[C@H]3CC[C@@]21C | Not Active | Not Active | Not Active | Not Active | Not Active | Not Active | Not Active | Not Active | Not Active | Not Active | Not Active |  |  |  |
| N[C@@H](Cc1ccc(F)cc1)C(=O)O | Not Active | Not Active | Not Active | Not Active | Not Active | Not Active | Not Active | Not Active | Not Active | Not Active | Not Active |  |  |  |
| CCOC(=O)[C@H](CCc1ccccc1)N[C@@H](C)C(=O)N1Cc2ccccc2C[C@H]1C(=O)O | Not Active | Not Active | Not Active | Not Active | Not Active | Not Active | Not Active | Not Active | Not Active | Not Active | Not Active |  |  |  |
| O=C(c1ccccc1Cl)N1CCC(Cc2ccccc2)CC1 | Not Active | Not Active | Not Active | Not Active | Not Active | Not Active | Not Active | Not Active | Not Active | Not Active | Not Active |  |  |  |
| CCOC(=O)[C@H](CCc1ccccc1)N[C@@H](C)C(=O)N1CCC[C@H]1C(=O)O | Not Active | Not Active | Not Active | Not Active | Not Active | Not Active | Not Active | Not Active | Not Active | Not Active | Not Active |  |  |  |
| Clc1cc2c(cc1Cl)Oc1cc(Cl)c(Cl)cc1O2 [2,3,7,8-TETRACHLORODIBENZO-P-DIOXIN] | Not Active | Not Active | Not Active | Not Active | Not Active | Not Active | Not Active | Not Active | Not Active | Not Active | Not Active |  |  |  |
| C=C1/C(=C\C=C2/CCC[C@]3(C)[C@@H]([C@H](C)CCCC(C)C)CC[C@@H]23)C[C@@H](O)C[C@@H]1O [ALFACALCIDOL] | Not Active | Not Active | Not Active | Not Active | Not Active | Not Active | Not Active | Not Active | Not Active | Not Active | Not Active |  |  |  |
| CCCCCC[C@H]1C(=O)O[C@H](C)[C@H](NC(=O)c2cccc(NC=O)c2O)C(=O)O[C@@H](C)[C@@H]1OC(=O)CC(C)C [ANTIMYCIN A] | Not Active | Not Active | Not Active | Not Active | Not Active | Not Active | Not Active | Not Active | Not Active | Not Active | Not Active |  |  |  |
| C[C@@H]1CC[C@H]2[C@@H](C)C(=O)O[C@@H]3O[C@@]4(C)CC[C@@H]1[C@]32OO4 [ARTEMISININ] | Not Active | Not Active | Not Active | Not Active | Not Active | Not Active | Not Active | Not Active | Not Active | Not Active | Not Active |  |  |  |
| CO[C@H]1[C@@H](O)[C@H](N)[C@@H](O[C@H]2O[C@H]([C@H](C)N)CC[C@H]2N)[C@H](O)[C@@H]1N(C)C(=O)CN [ASTROMICIN] | Not Active | Not Active | Not Active | Not Active | Not Active | Not Active | Not Active | Not Active | Not Active | Not Active | Not Active |  |  |  |
| [N-]=[N+]=CC(=O)OC[C@H](N)C(=O)O [AZASERINE] | Not Active | Not Active | Not Active | Not Active | Not Active | Not Active | Not Active | Not Active | Not Active | Not Active | Not Active |  |  |  |
| CC[C@H]1OC(=O)[C@H](C)[C@@H](O[C@H]2C[C@@](C)(OC)[C@@H](O)[C@H](C)O2)[C@H](C)[C@@H](O[C@@H]2O[C@H](C)C[C@H](N(C)C)[C@H]2O)[C@](C)(O)C[C@@H](C)CN(C)[C@H](C)[C@@H](O)[C@]1(C)O [AZITHROMYCIN] | Not Active | Not Active | Not Active | Not Active | Not Active | Not Active | Not Active | Not Active | Not Active | Not Active | Not Active |  |  |  |
| CC(C)(C)c1ccc(S(=O)(=O)/C=C/C#N)cc1 [BAY-11-7085] | Not Active | Not Active | Not Active | Not Active | Not Active | Not Active | Not Active | Not Active | Not Active | Not Active | Not Active |  |  |  |
| CCc1oc2ccccc2c1C(=O)c1cc(Br)c(O)c(Br)c1 [BENZBROMARONE] | Not Active | Not Active | Not Active | Not Active | Not Active | Not Active | Not Active | Not Active | Not Active | Not Active | Not Active |  |  |  |
| O=c1cc(-c2ccccc2)oc2ccc3ccccc3c12 [BETA-NAPHTHOFLAVONE] | Not Active | Not Active | Not Active | Not Active | Not Active | Not Active | Not Active | Not Active | Not Active | Not Active | Not Active |  |  |  |
| CC(C)C[C@H]1C(=O)N2CCC[C@H]2[C@]2(O)O[C@](NC(=O)[C@@H]3C=C4c5cccc6[nH]c(Br)c(c56)C[C@H]4N(C)C3)(C(C)C)C(=O)N12 [BROMOCRIPTINE] | Not Active | Not Active | Not Active | Not Active | Not Active | Not Active | Not Active | Not Active | Not Active | Not Active | Not Active |  |  |  |
| CS(=O)(=O)OCCCCOS(C)(=O)=O [BUSULFAN] | Not Active | Not Active | Not Active | Not Active | Not Active | Not Active | Not Active | Not Active | Not Active |  | Not Active | 5.21 |  |  |
| O=C(/C=C/c1ccc(O)c(O)c1)OCCc1ccccc1 [CAFFEIC ACID PHENETHYL ESTER] | Not Active | Not Active | Not Active | Not Active | Not Active | Not Active | Not Active | Not Active | Not Active | Not Active |  |  | 2.89 |  |
| COc1cc(CNC(=O)CCCC/C=C/C(C)C)ccc1O [CAPSAICIN] | Not Active | Not Active | Not Active | Not Active | Not Active | Not Active | Not Active | Not Active | Not Active | Not Active | Not Active |  |  |  |
| NC(=O)N1c2ccccc2C=Cc2ccccc21 [CARBAMAZEPINE] | Not Active | Not Active | Not Active | Not Active | Not Active | Not Active | Not Active | Not Active | Not Active | Not Active | Not Active |  |  |  |
| CCOC(=O)n1ccn(C)c1=S [CARBIMAZOLE] | Not Active | Not Active | Not Active | Not Active | Not Active | Not Active | Not Active | Not Active | Not Active | Not Active |  |  |  | Not Active |
| Oc1ccccc1O [CATECHOL] | Not Active | Not Active | Not Active | Not Active | Not Active | Not Active | Not Active | Not Active | Not Active |  | Not Active | 23.4 |  |  |
| CO[C@@]1(NC(=O)CSCC#N)C(=O)N2C(C(=O)O)=C(CSc3nnnn3C)CS[C@@H]21 [CEFMETAZOLE] | Not Active | Not Active | Not Active | Not Active | Not Active | Not Active | Not Active | Not Active | Not Active | Not Active | Not Active |  |  |  |
